Where a name gives a salt, the structure may show the parent alone.

For data set [1], the target named is T1, human recombinant cathepsin L (Homo sapiens, UniProt P07711).
T1 construct: they were identified as a precursor of human cathepsin L and a product processed therefrom, estimated from these molecular weights; made in house; host or cells: mouse myeloma Sp2/0 cells transformed with pTBN-HCLneo (Sp-HCL26); purified from serum-free culture supernatant on CM-Sephadex C-50 and Mono S
As to the kind of experiment: Determination of cathepsin L inhibitory activity. The settings on record: pH 5.5, 37° C., 20 minutes, Z-Phe-Arg-7MCA substrate; read-out: Inhibitory activity potency IC50 (ng/ml) Cathepsin L (converted). The data set is classed as biochemical. On the procedure:
The bioactivities of the compounds of this invention are described below. The compounds [I] or salts thereof have activities of inhibiting cathepsin L and cathepsin B, and of potently inhibiting thiol protease. Their inhibitory activities against cathepsin L were determined by the methods described below.
Determination of cathepsin L inhibitory activity
To 75 μl of a reaction mixture containing 1 ng of human recombinant cathepsin L (as produced in Reference Examples 1 through 7 below), 2 μM of dithiothreitol (hereinafter abbreviated as DTT), 1 mM of ethylenediamine tetraacetate disodium salt, a 0.1M sodium acetate buffer solution (pH 5.5) and various concentrations of test samples, 25 μl of 20 μM benzyloxycarbonyl-L-phenylalanyl-L-arginine-4-methylcoumaryl-7-amide (hereinafter abbreviated as Z-Phe-Arg-7MCA, manufactured by Peptide Institute) was added to initiate the reaction. After incubation at 37° C. for 20 minutes, 100 μl of a reaction stopper solution containing 100 mM sodium monochloroacetate was added. The amount of liberated 4-methyl-7-aminocoumarin was determined at an excitation wavelength of 365 nm and a fluorescence wavelength of 450 nm, using a fluorophotometer (FCA:manufactured by Baxter Travenol). The sample concentration required to cause 50% inhibition was expressed as the IC50 value, with the fluorescence value obtained from the same reaction in the absence of the sample taken as 100%.

The next data set relates to mice. As to the kind of experiment: Toxicity study. The data set is classed as in vivo. As to conditions: intravenously or intraperitoneally, 1,000 mg/kg. On the procedure:
Compound 4 caused no death in mice when it was intravenously or intraperitoneally administered at 1,000 mg/kg.

Data set [2] concerns bone resorption as enhanced by PTH (parathyroid hormone). As to the kind of experiment: Determination of bone resorption suppressive activity (PTH-stimulated mouse femur culture). As to conditions: 168 h, test compound 10 μg/ml, PTH 1 μM, cultured 7 days. The data set is classed as cell-based, female BALB/c mice. The procedure: The compounds [I] or salts thereof of this invention show suppressive action against bone resorption as enhanced by PTH (parathyroid hormone), and the action was determined by method described below. Determination of bone resorption suppressive activity
Femurs were aseptically isolated from female BALB/c mice at 8-10 weeks of age. After the bone marrow cavity was washed with a Ham F12 medium containing 10 weight % thermally inactivated fetal calf serum, 100 unit/ml penicillin G and 100 unit/ml streptomycin (hereinafter referred to as culture broth), each femur was added to 1 ml of the culture broth and precultured for 3 hours at 37° C. in the presence of 5% carbon dioxide and 95% air. Each bone was transferred to 1 ml of the culture broth supplemented with PTH (manufactured by Peptide Institute, Inc., final concentration 1 μM) and the test compound (final concentration 10 μg/ml) and cultured for 7 more days, after which the total calcium content in the culture broth was determined using Calcium E-Test Wako (manufactured by Wako Pure Chemical Industries, Ltd.). The bone resorption suppressive activity of the test compound was calculated using the following equation.
Bone resorption suppressive activity (%)=100×(Cp-Cs)/(Cp-Cc)
Cc: Total calcium content in the culture broth containing neither PTH nor test compound
Cp: Total calcium content in the culture broth containing PTH […]

T1 sequence (P07711 114-333): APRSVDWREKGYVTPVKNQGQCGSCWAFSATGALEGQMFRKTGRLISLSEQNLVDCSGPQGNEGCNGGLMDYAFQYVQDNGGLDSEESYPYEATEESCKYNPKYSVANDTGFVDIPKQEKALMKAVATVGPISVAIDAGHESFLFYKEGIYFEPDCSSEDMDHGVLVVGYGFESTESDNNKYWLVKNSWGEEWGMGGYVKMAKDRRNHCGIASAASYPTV

For the molecule `CC(C)CCNC(=O)[C@H](Cc1ccccc1)NC(=O)[C@H]1N[C@@H]1C(=O)[O-].[Na+]` [Compound 4, N-[N-[(2S,3S)-3-Carboxyaziridine-2-carbonyl]-L-phenylalanyl]isopentylamine sodium salt], in data set [1], the IC50 is 13.5 nM. In addition, in the data set with mice, the death in mice result is “no death”.

In the case of `NCCCCNC(=O)[C@H](Cc1ccccc1)NC(=O)[C@H]1N[C@@H]1C(=O)O` [Compound 7, N-[N-[(2S,3S)-3-carboxyaziridine-2-carbonyl]-L-phenylalanyl]-1,4-diaminobutane], in data set [2], the activity at 10 µg/mL stood at 99%. For the same molecule, the IC50 in data set [1] was 8.61 nM.

Turning to `CC(C)CCNC(=O)[C@H](Cc1ccccc1)NC(=O)[C@@H]1[C@@H](C(=O)O)N1C` (stereo partly drawn) [Compound 43, N-[N-[(2S,3S)-N-Methyl-3-carboxyaziridine-2-carbonyl]-L-phenylalanyl]isopentylamine Sodium Salt], the IC50 in data set [1] is 0.522 nM.

For `CCN1[C@H](C(=O)O)[C@H]1C(=O)N[C@@H](Cc1ccccc1)C(=O)NCCC(C)C` (stereo partly drawn) [Compound 45, N-[N-[(2S,3S)-N-Ethyl-3-Carboxyaziridine-2-carbonyl]-L-phenylalanyl]isopentylamine Sodium Salt], in data set [1], the IC50 was 0.252 nM.

Source of the values: patent US5668128A, “Aziridine derivatives, their production and use” (Takeda Chemical Industries, Ltd., priority 1994, dated 1997).
